Assay results as given in publication PMC8564487, “MHC-Optimized Peptide Scaffold for Improved Antigen Presentation and Anti-Tumor Response” (Frontiers in Immunology, 2021).

Experiments:
Assay type in all cases: in vivo, C57BL/6 mice
B16F10 tumors [1] = test: IHC of tumor-infiltrating lymphocytes in B16F10 tumors; conditions: B16F10 tumors at sacrifice, Trp2 groups, Central Tumor
Text: Formalin-Fixed Paraffin-Embedded (FFPE) sections were stained with CD3+, FoxP3 and Granzime B antibodies manually. Visualization of the antibody–antigen reaction was visualized by anti-alkaline phosphatase methods using Vulcan fast red (Biocare Medical FR805S) as the chromogenic substrate. Finally, sections were weakly counterstained with hematoxylin and mounted.
Lymphocyte densities (cells/mm2) were quantified in the tumor (CT) and invasive margin (IM) by digital pathology. The slides were scanned with Aperio AT2 (Leica) and the areas (CT, IM) were selected by an experienced pathologist (MDB). Finally, the acquired images were quantified using QuPath 0.2.3.
To evaluate the balance between cytotoxic and immune suppressive activity of B16 tumor model a formula considering the numerical difference between the GrzB+ cells (cytotoxic cells) and the FOXP3+ cells (immunosuppressive cells), on total CD3+ cells, was applied. The formula is schematized as:
Ratio=(# of GRZB−# of FOXP3)/# of CD3.

B16F10 tumors [2] = test: Tumor necrosis rate (H&E) in B16F10 tumors; conditions: H&E staining
Experimental: Finally, tumor necrosis rates were evaluated for each tumor lesion. The slides were stained with hematoxylin and eosin and then subjected to reading and determination of areas of necrosis. For percentage of necrosis through the tumor mass, was used the following formula: …
%necrosis area: (necrosis area/total tumoral mass area)∗100

splenocytes = test: IFN-γ EliSpot cross-reactivity between wt and htcPep after immunization; conditions: mice immunized with NAL peptide, splenocytes re-stimulated with the labelled peptide
Experimental: C57BL/6 mice were immunized with the different htcPep. In particular, each group of animals (6 for each group) were injected by sub-cutaneous (s.c.) route with 100 µg of WT, INC (mix of selected htcPep), NAL or MIX peptides (peptide library) respectively, emulsified with 50 μg of Polyinosinic:polycytidylic acid [poly(I:C); InvivoGen] adjuvant formulated in PBS (200ul total volume). Each group received weekly the peptide vaccine in combination with metronomic chemotherapy (MCT) and ICI. One group was treated only with MCT and ICI (MCT + ICI group). Control mice were treated with endotoxin-free phosphate-buffered saline (PBS). Splenocytes were re-stimulated ex-vivo O/N with the different peptides in an IFN-γ EliSpot assay.
ELISPOT was performed according to BD Biosciences manufacturer instructions (BD ELISPOT Mouse IFN-γ ELISPOT Set cod. 551083). 5x10^5 splenocytes or 2 x10^5 tumor infiltrated lymphocytes (TIL) were counted and plated in each well. […]
Both splenocytes and TILs were stimulated with 10ug/ml of single or peptide pool used for the immunization and incubated for 24-26h. […] The plates were read with an AID EliSpot Reader Systems (AID GmbH, Strassberg, Germany). The results were calculated as spot forming counts as a mean of a duplicate count from the specific antigen stimulation minus the negative control.

## Trp2 wt: wild type Trp2 H-2Db epitope expressed by B16F10 melanoma cells (SVYDFFVWL; Trp2 H-2Db epitope; UniProt P29812 180-188, looked up, fragment)
B16F10 tumors [1]
  Average number of FOXP3+ T cells, CT area: 2.8
B16F10 tumors [2]
  % of necrosis (necrosis area/total tumoral mass area): 10%

## Y4W: heteroclitic E7 peptide with Tryptophan substitution at position 4 (RAHWNIVTF; UniProt P03129 49-57, looked up, variant Y52W)
splenocytes; HPV-E7 series
  T cell cross-reactivity of NAL-immunized animals with challenging htcPep: strongest T cells cross-reactivity

## D4W: heteroclitic Trp2 peptide with Tryptophan substitution at position 4 (SVYWFFVWL; UniProt P29812 180-188, looked up, variant D183W)
splenocytes; Trp2 series
  T cell cross-reactivity of NAL-immunized animals with challenging htcPep: strongest T cells cross-reactivity
